Measurements published in patent US20240197726A1, “NOVEL TETRAHYDROISOQUINOLINE ALKALOID COMPOUND CONTAINING MACROCYCLE” (THE UNIVERSITY OF TOKYO, priority 2021, published 2024).
Where two headings read alike, the source gives them in different places.

What was measured:
Format in all cases: cell-based
[1] = tested on: OVCAR-8 cancer cells; experiment: antitumor activity, sulforhodamine B cell growth assay, OVCAR-8; conditions: OVCAR-8, drug exposure 48 hours, read-out: GI50 value: 50% growth inhibitory concentration
Procedure: (§1) The THIQ compound containing a macrocyclic structure of the present invention was administered to various cancer cell lines, and the antitumor activity (Go value) was observed. Specifically, verification was performed according to the literature (Yamori, T.; Matsunaga, A.; Sato, S.; Yamazaki, K.; Komi, A.; Ishizu, K. et al. Cancer Res. 1999, 59, 4042) by the following procedure.
(§2) Cells were plated at an appropriate density in a 96-well plate in RPMI 1640 together with 5% fetal bovine serum, and adhered overnight. The cells were exposed to a drug for 48 hours. Then, according to the sulforhodamine B assay described by Skehan et al (Skehan P., Storeng R., Scudiero D., Monks A., McMahon J., Vistica D., Warren J. T., Bokesch H., Kenney S., Boyd M. R. J Natl. Cancer Inst, 1990, 82, 1107-1112), the cell growth rate was measured. The absorbance of the control well (C) and the test well (T) was measured at 525 nm. In addition, the time at which the drug was added was set as time 0, and the absorbance for the test well (T0) was measured. Using these measured values, the cell growth inhibitory effect (% growth=PG) was calculated by the following formula at each concentration of the drug.
(§3) (T<T0): PG=100×[(T−T0)/T]
(§4) The PG values determined above for each cell line were plotted against the concentration (logarithm) on a semi-logarithmic graph, and summarized for each visceral cancer. Concentrations at which the dose-response curve of each cell line crossed the horizontal line of PG=50%, 0%, or −50% were calculated. These concentrations were defined as Log GI50, Log TGI, and Log LC50. Actually, using two data points of the drug concentration before and after crossing each horizontal line, the drug concentration (logarithmic value) at the intersection of the straight line connecting the two points and the horizontal line for each PG was calculated.

[2] = tested on: MKN-B gastric cancer cells; experiment: antitumor activity, sulforhodamine B cell growth assay, MKN-B; conditions: MKN-B, drug exposure 48 hours; read-out: GI50 value: 50% growth inhibitory concentration
Procedure: as §1, §2, §3, §4

[3] = tested on: ACHN kidney cancer cells; experiment: antitumor activity, sulforhodamine B cell growth assay, ACHN; conditions: ACHN, drug exposure 48 hours, read-out: GI50 value: 50% growth inhibitory concentration
Procedure: as §1, §2, §3, §4

[4] = tested on: HBC-4 breast cancer cells; experiment: antitumor activity, sulforhodamine B cell growth assay, HBC-4; conditions: HBC-4, drug exposure 48 hours, read-out: GI50 value: 50% growth inhibitory concentration
Procedure: as §1, §2, §3, §4

[5] = tested on: NCI-H460 lung cancer cells; experiment: antitumor activity, sulforhodamine B cell growth assay, NCI-H460; conditions: NCI-H460, drug exposure 48 hours, read-out: GI50 value: 50% growth inhibitory concentration
Procedure: as §1, §2, §3, §4

[6] = tested on: SNB-78 central nervous system cancer cells; experiment: antitumor activity, sulforhodamine B cell growth assay, SNB-78; conditions: SNB-78, drug exposure 48 hours, read-out: GI50 value: 50% growth inhibitory concentration
Procedure: as §1, §2, §3, §4

[7] = tested on: KM-12 colorectal cancer cells; experiment: antitumor activity, sulforhodamine B cell growth assay, KM-12; conditions: KM-12, drug exposure 48 hours, read-out: GI50 value: 50% growth inhibitory concentration
Procedure: as §1, §2, §3, §4

[8] = tested on: OVCAR-3 cancer cells; experiment: antitumor activity, sulforhodamine B cell growth assay, OVCAR-3; conditions: OVCAR-3, drug exposure 48 hours, read-out: GI50 value: 50% growth inhibitory concentration
Procedure: as §1, §2, §3, §4

[9] = tested on: MKN1 gastric cancer cells; experiment: antitumor activity, sulforhodamine B cell growth assay, MKN1; conditions: MKN1, drug exposure 48 hours, read-out: GI50 value: 50% growth inhibitory concentration
Procedure: as §1, §2, §3, §4

[10] = tested on: BSY-1 breast cancer cells; experiment: antitumor activity, sulforhodamine B cell growth assay, BSY-1; conditions: BSY-1, drug exposure 48 hours; read-out: GI50 value: 50% growth inhibitory concentration
Procedure: as §1, §2, §3, §4

[11] = tested on: St-4 gastric cancer cells; experiment: antitumor activity, sulforhodamine B cell growth assay, St-4; conditions: St-4 (SI-4 in Tables 2-11), drug exposure 48 hours; read-out: GI50 value: 50% growth inhibitory concentration
Procedure: as §1, §2, §3, §4

[12] = tested on: SF-268 central nervous system cancer cells; experiment: antitumor activity, sulforhodamine B cell growth assay, SF-268; conditions: SF-268, drug exposure 48 hours, read-out: GI50 value: 50% growth inhibitory concentration
Procedure: as §1, §2, §3, §4

[13] = tested on: DMS114 lung cancer cells; experiment: antitumor activity, sulforhodamine B cell growth assay, DMS114; conditions: DMS114, drug exposure 48 hours, read-out: GI50 value: 50% growth inhibitory concentration
Procedure: as §1, §2, §3, §4

[14] = tested on: HBC-5 breast cancer cells; experiment: antitumor activity, sulforhodamine B cell growth assay, HBC-5; conditions: HBC-5, drug exposure 48 hours, read-out: GI50 value: 50% growth inhibitory concentration
Procedure: as §1, §2, §3, §4

[15] = tested on: DMS273 lung cancer cells; experiment: antitumor activity, sulforhodamine B cell growth assay, DMS273; conditions: DMS273, drug exposure 48 hours, read-out: GI50 value: 50% growth inhibitory concentration
Procedure: as §1, §2, §3, §4

[16] = tested on: MKN45 gastric cancer cells; experiment: antitumor activity, sulforhodamine B cell growth assay, MKN45; conditions: MKN45, drug exposure 48 hours, read-out: GI50 value: 50% growth inhibitory concentration
Procedure: as §1, §2, §3, §4

[17] = tested on: HCC2998 colorectal cancer cells; experiment: antitumor activity, sulforhodamine B cell growth assay, HCC2998; conditions: HCC2998, drug exposure 48 hours, read-out: GI50 value: 50% growth inhibitory concentration
Procedure: as §1, §2, §3, §4

[18] = tested on: HCT-116 colorectal cancer cells; experiment: antitumor activity, sulforhodamine B cell growth assay, HCT-116; conditions: HCT-116, drug exposure 48 hours, read-out: GI50 value: 50% growth inhibitory concentration
Procedure: as §1, §2, §3, §4

[19] = tested on: LOX-IMVI melanoma cells; experiment: antitumor activity, sulforhodamine B cell growth assay, LOX-IMVI; conditions: LOX-IMVI, drug exposure 48 hours, read-out: GI50 value: 50% growth inhibitory concentration
Procedure: as §1, §2, §3, §4

[20] = tested on: HCT-15 colorectal cancer cells; experiment: antitumor activity, sulforhodamine B cell growth assay, HCT-15; conditions: HCT-15, drug exposure 48 hours, read-out: GI50 value: 50% growth inhibitory concentration
Procedure: as §1, §2, §3, §4

[21] = tested on: U251 central nervous system cancer cells; experiment: antitumor activity, sulforhodamine B cell growth assay, U251; conditions: U251, drug exposure 48 hours, read-out: GI50 value: 50% growth inhibitory concentration
Procedure: as §1, §2, §3, §4

## COc1c(C)cc2c(c1O)[C@@H]1[C@@H]3Cc4c5c(C)c6c(c4C(CNC(=O)[C@H](C)N(C)CC#CCO5)N3[C@@H](C#N)[C@H](C2)N1C)OCO6 [Compound 29]
[1]; Homo sapiens
  GI50: 2.6 nM
[2]
  GI50: 3 nM
[3]; Homo sapiens
  GI50: 2.2 nM
[4]; HBC4
  GI50: 1.5 nM
[5]; Homo sapiens
  GI50: 2.8 nM
[6]; Homo sapiens
  GI50: 3.1 nM
[7]; Homo sapiens, KM12
  GI50: 3.1 nM
[8]; Homo sapiens
  GI50: 2.6 nM
[9]; Homo sapiens, MKN-1
  GI50: 2.3 nM
[10]
  GI50: 0.6 nM
[11]
  GI50: 3.8 nM
[12]; Homo sapiens
  GI50: 2.8 nM
[13]; Homo sapiens, DMS-114
  GI50: 0.89 nM
[14]; HBC5
  GI50: 1.8 nM
[15]; Homo sapiens, DMS-273
  GI50: 1.1 nM
[16]; Homo sapiens, MKN-45
  GI50: 1.3 nM
[17]; Homo sapiens, HCC 2998
  GI50: 2.8 nM
[18]; Homo sapiens
  GI50: 2.4 nM
[19]; Homo sapiens
  GI50: 0.59 nM
[20]; Homo sapiens
  GI50: 3.9 nM
[21]; Homo sapiens, U-251
  GI50: 1.4 nM

## C#CCN1C/C=C/C(=C)COc2c(C)c3c(c4c2C[C@H]2[C@H]5c6c(cc(C)c(OC)c6O)C[C@@H]([C@H](C#N)N2C4CNC(=O)[C@@H]1C)N5C)OCO3 [Compound 35]
[1]; Homo sapiens
  GI50: 3.1 nM
[2]
  GI50: 3.5 nM
[3]; Homo sapiens
  GI50: 3.1 nM
[4]; HBC4
  GI50: 2.2 nM
[5]; Homo sapiens
  GI50: 3.4 nM
[6]; Homo sapiens
  GI50: 3.4 nM
[7]; Homo sapiens, KM12
  GI50: 3.8 nM
[8]; Homo sapiens
  GI50: 3.2 nM
[9]; Homo sapiens, MKN-1
  GI50: 2.7 nM
[10]
  GI50: 1.3 nM
[11]
  GI50: 3.8 nM
[12]; Homo sapiens
  GI50: 3.3 nM
[13]; Homo sapiens, DMS-114
  GI50: 1.2 nM
[14]; HBC5
  GI50: 2.7 nM
[15]; Homo sapiens, DMS-273
  GI50: 2.5 nM
[16]; Homo sapiens, MKN-45
  GI50: 2.7 nM
[17]; Homo sapiens, HCC 2998
  GI50: 3.6 nM
[18]; Homo sapiens
  GI50: 2.7 nM
[19]; Homo sapiens
  GI50: 1.7 nM
[20]; Homo sapiens
  GI50: 4.5 nM
[21]; Homo sapiens, U-251
  GI50: 2.5 nM

## COC1=C(C)C(=O)C2=C(C1=O)[C@H](CNC(=O)[C@H](C)N)N1C(C2)[C@H]2c3c(cc(C)c(OC)c3O)C[C@@H]([C@@H]1C#N)N2C (stereo partly drawn) [Cyanosafracin B, reference compound]
[1]
  GI50: 290 nM
[2]
  GI50: 170 nM
[3]
  GI50: 320 nM
[4]
  GI50: 59 nM
[5]
  GI50: 400 nM
[6]
  GI50: 63 nM
[7]
  GI50: 530 nM
[8]
  GI50: 130 nM
[9]
  GI50: 52 nM
[10]
  GI50: 34 nM
[11]
  GI50: 430 nM
[12]
  GI50: 370 nM
[13]; listed as drawing 116
  GI50: 35 nM
[13]; listed as drawing 148
  GI50: 38 nM
[14]; listed as drawing 116
  GI50: 82 nM
[14]; listed as drawing 120
  GI50: 62 nM
[15]
  GI50: 270 nM
[16]
  GI50: 300 nM
[17]
  GI50: 350 nM
[18]
  GI50: 290 nM
[19]; listed as drawing 116
  GI50: 81 nM
[19]; listed as drawing 120
  GI50: 61 nM
[20]
  GI50: 390 nM
[21]
  GI50: 370 nM
